# System: MCF-7, clone WS8, cells
# Assay: MCF-7 cell proliferation assay of estrogenic activity
# Format: cell-based, human
# Settings: logarithmic (base 10) Relative Proliferative Effect vs 17-beta estradiol in the MCF-7 assay; values called expected or measured
# From the text: The MCF-7 assay uses MCF-7, clone WS8, cells to measure whether and to what extent a substance induces cell proliferation via estrogen receptor (ER)-mediated pathways. The method is described in “Test Method Nomination: MCF-7 Cell Proliferation Assay of Estrogenic Activity” submitted for validation by CertiChem, Inc. to the National Toxicology Program Interagency Center for the Evaluation of Alternative Toxicological Methods (NICEATM) on Jan. 19, 2006 (available online at http://iccvam.niehs.nih.gov/methods/endocrine/endodocs/SubmDoc.pdf).
# A brief summary of the method of the aforementioned MCF-7 assay is provided below. MCF-7, clone WS8, cells are maintained at 37° C. in RMPI (Roswell Park Memorial Institute medium) containing Phenol Red (e.g., GIBCO Catalog Number 11875119) and supplemented with the indicated additives for routine culture. An aliquot of cells maintained at 37° C. are grown for 2 days in phenol-free media containing 5% charcoal stripped fetal bovine serum in a 25 cm^2 tissue culture flask. Using a robotic dispenser such as an epMotion 5070 unit, MCF-7 cells are then seeded at 400 cells per well in 0.2 ml of hormone-free culture medium in Corning 96-well plates. The cells are adapted for 3 days in the hormone-free culture medium prior to adding the test chemical to be assayed for activity. The media containing the test chemical is replaced daily for 6 days. At the end of the 7-day exposure to the test chemical, the media is removed, the wells are washed once with 0.2 ml of HBSS (Hanks' Balanced Salt Solution), and then assayed to quantify amounts of DNA per well using a micro-plate modification of the Burton diphenylamine (DPA) assay, which is used to calculate the level of cell proliferation.
# RPE is the ratio between the EC50 of the test chemical and the EC50 of the control substance 17-beta estradiol times 100, where EC50 is “effective concentration 50^0/” or half-maximum stimulation concentration for cell proliferation measured as total DNA in the MCF-7 assay.
row,SMILES,Log RPE
1,CC(C(=O)O)(c1ccc(O)cc1)c1ccc(O)cc1,less than −4
2,CC(C)(C)c1cc(O)c(C(C)(C)C)cc1O,less than −4
3,CC(C)(c1cc(Br)c(O)c(Br)c1)c1cc(Br)c(O)c(Br)c1,−3
4,C[C@]12CC[C@@H]3c4ccc(O)cc4CC[C@H]3[C@@H]1CC[C@@H]2O [17β-estradiol],2.00
5,O=S(=O)(c1ccc(O)cc1)c1ccc(O)cc1 [Bisphenol S],−2

# Biological target: T1, human estrogen receptor (Homo sapiens, UniProt P03372)
# T1 sequence (P03372 1-595): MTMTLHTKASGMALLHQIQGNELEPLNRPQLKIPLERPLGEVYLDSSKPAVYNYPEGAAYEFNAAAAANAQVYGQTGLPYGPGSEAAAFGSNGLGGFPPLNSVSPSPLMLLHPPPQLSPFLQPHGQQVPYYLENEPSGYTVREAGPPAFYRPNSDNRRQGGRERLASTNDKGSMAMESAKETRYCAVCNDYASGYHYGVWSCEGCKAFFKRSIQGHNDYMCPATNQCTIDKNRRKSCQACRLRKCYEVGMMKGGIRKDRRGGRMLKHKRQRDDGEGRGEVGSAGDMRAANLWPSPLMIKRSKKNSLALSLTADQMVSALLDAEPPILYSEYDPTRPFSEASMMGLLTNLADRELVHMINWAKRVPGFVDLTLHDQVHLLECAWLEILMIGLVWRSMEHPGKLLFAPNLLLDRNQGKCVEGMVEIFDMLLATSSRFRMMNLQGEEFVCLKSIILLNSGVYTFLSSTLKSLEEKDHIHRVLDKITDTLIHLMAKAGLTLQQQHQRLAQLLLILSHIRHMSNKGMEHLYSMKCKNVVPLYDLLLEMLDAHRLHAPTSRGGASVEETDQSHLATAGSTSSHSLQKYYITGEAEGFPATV
# Assay: in vitro assay of estrogenic activity correlated to the MCF-7 assay
# Format: cell-based
# Settings: suitable in vitro assay correlated to MCF-7 assay; assay not named for hydroquinone
row,SMILES,estrogenic activity
1,CC(C)(C)c1cc(O)c(C(C)(C)C)cc1O,does not exhibit appreciable estrogenic activity
2,Oc1ccc(O)cc1 [hydroquinone],appreciably non-estrogenic

# Reference: patent US20200347264A1, “COMPOSITIONS FOR CONTAINERS AND OTHER ARTICLES AND METHODS OF USING SAME” (SWIMC LLC, priority 2012, published 2020)
